Columns and labels:
[1] = test system: cytoplasmic HMGB1 in MG-63/GFRα1 tumors; test: Immunofluorescence of HMGB1 in xenograft tumors; type: in vivo, mouse; conditions: tumors of MG-63/GFRα1 cell grafted mice
Experimental: FIG. 5. GFRα1-mediated autophagy promotes chemoresistance and tumor growth in vivo. (a) BALB/c nude mice (n =40) were injected with MG-63 cells that were transfected with either control or GFRα1 expressing vector. Tumor volume was measured every 3 or 4 days. Data are shown as mean±SEM. ** p<0.05. (b) BALB/c nude mice (n=20) were injected with MG-63 cells that were transfected with either control or GFRα1 shRNA. Tumor volume was measured every 3 or 4 days. Data are shown as mean±SEM. ** p<0.05. (c) Tumors that were generated from mice injected with MG-63 cells containing GFRα1 expressing vector were directly injected with PBS, CQ, cisplatin, or cisplatin+CQ. Tumor volume was measured every 4 days. […] Right, quantitative analysis of percentage of cytoplasmic HMGB1-positive cells in HMGB1-positive tumors. […] Right, quantitative analysis of percentage of TUNEL-positive cells in HMGB1-positive tumors. […]
Immunohistochemistry. […] For immunofluorescence, immunohistochemistry of patient tissues and mouse tumors are incubated with the Alexa Fluor 488- and 647-conjugated secondary antibodies (Invitrogen), and nuclei were counterstained with DAPI (Sigma-Aldrich) Immunofluorescence was detected by confocal microscopy. […] Thus, marked plus (+) was considered to be positive immunoreactivity, while that minus (−) was considered to be negative immunoreactivity (not detected). […]

[2] = test system: GFRα1 mRNA in MG-63 and U-2 OS cells; test: Quantitative real-time PCR of GFRα1 mRNA after cisplatin; type: cell-based, human; conditions: both cell lines; dose and time dependent
Experimental: FIG. 1. Cisplatin induces GFRα1 expression in osteosarcoma cells. (a-c) Immunoblot analysis of osteosarcoma cell lysates with antibodies specific for GFRα1 and β-actin. (a) MG-63 and U-2 OS cells were treated with doxorubicin (5 μM), cisplatin (20 μM), or methotrexate (1 mM) for 24 hr. Immunoblot analysis of GFRα1 (left) and quantification of GFRα1 expression (right) after treatment of chemotherapeutic agents. (b) MG-63 and U-2 OS cells were treated with different concentrations of cisplatin for 24 hr. (c) MG-63 and U-2 OS cells were treated with cisplatin (20 μM) and collected at the indicated time. (d and e) Quantitative real-time PCR of GFRα1 mRNA expression after cisplatin treatment. Representative images (top) and quantitative analysis (bottom) of GFRα1 mRNA expression. The values are presented as a mean±s.d.m (n=3). ** denotes p<0.05 by t-test. (d) MG-63 and U-2 OS cells were treated with different concentrations of cisplatin for 24 hr. (e) MG-63 and U-2 OS cells were treated with cisplatin (20 μM) and collected at the indicated time.
Quantitative real-time (RT)-PCR (qPCR). Total RNA was collected and isolated from cell lines using the RNeasy system according to the manufacturer's protocol (Qiagen, Hilden, Germany). cDNA was generated from a 30 μl reaction containing total RNA (3 μg), reverse transcriptase and oligo dT primers (Promega, Madison, Wis.). […]

[3] = test system: GFRα1-overexpressing MG-63 clone #4; test: Colony-forming assay in the presence of cisplatin; type: cell-based, human; conditions: cisplatin 20 μM 10 days; 3-MA (10 μM), Baf (100 nM), CQ (30 μg/ml)
Text: FIG. 3. […] Scale bar, 20 μm. […] Scale bar, 20 μm. […] Scale bar, 20 μm.

Row | SMILES | HMGB1 expression localized in the cytoplasm [1] | level of GFRα1 mRNA [2] | number of colonies [3]
1 | N.N.[Cl][Pt][Cl] [cisplatin, Cis-Diamineplatinum(II) dichloride] | significant increase | increased | 
2 | Cn1cnc(N)c2ncnc1-2 [3-MA, 3-methyladenine] |  |  | effectively reduced
